Measured values taken from PMC8213153 (PLoS ONE, 2021).
In brackets after ≈: the same amount, converted by molar mass. Read-outs that look alike come from different tables or passages of the source.

Legend:
Format in all cases: cell-based
[1] = Cytotoxicity (MTT) assay of single and dual combinatory drugs; conditions: human; for CC50 at 48 h: CompuSyn, n = 3, read-out: CC50
SARS-CoV-2 virus = test: microbe, parasite or virus in culture; conditions: for IC50: Severe acute respiratory syndrome coronavirus 2, Vero
IL-10 = IL-10 level of virus-infected Vero cells (ELISA)
Outline: (§1)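 Medium from treated virus-infected Vero cells centrifuged 3,500 rpm for 20 min; supernatants diluted 1:5 in water. Sandwich ELISA incubated 60 min at 37 °C, substrate 10 min at 37 °C; cytokine concentrations derived from OD against standard curves.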

IL-6 = IL-6 level of virus-infected Vero cells (ELISA)
Outline: as §1

TNF-α = TNF-α level of virus-infected Vero cells (ELISA)
Outline: as §1

[2] = HYDROXYCHLOROQUINE-AZITHROMYCIN series, read-out: Cell Viability (%)
[3] = HYDROXYCHLOROQUINE-DOXYCYCLINE series, read-out: Cell viability (%)
[4] = HYDROXYCHLOROQUINE-FAVIPIRAVIR series, read-out: Cell Viability (%)
[5] = HYDROXYCHLOROQUINE-LOPIRITO series, read-out: Cell Viability (%)

SMILES: CCN(CCO)CCCC(C)Nc1ccnc2cc(Cl)ccc12 (stereo not shown) [HCQ, Hydroxychloroquine]
- CC50 at 48 h ([1]; HCQ-AZI experiment (Fig 7)): 5940 µg/mL
- CC50 at 48 h ([1]; HCQ-DOXY experiment (Fig 8)): 1500 µg/mL
- CC50 at 48 h ([1]; HCQ-FAVI experiment (Fig 10)): 11.8 µg/mL
- CC50 at 48 h ([1]; HCQ-LOPIRITO experiment (Fig 11)): 2.51 µg/mL
- viability at 48 h, 0.2 μg/mL [1, 2]: 85.6%
- viability at 48 h, 2 μg/mL [1, 2]: 91%
- viability at 48 h, 10 μg/mL [1, 2]: 94.4%
- viability at 48 h, 100 μg/mL [1, 2]: 46.6%
- viability at 48 h, 400 μg/mL [1, 2]: 68.6%
- viability at 48 h, 0.2 μg/mL [1, 3]: 97.1%
- viability at 48 h, 2 μg/mL [1, 3]: 97%
- viability at 48 h, 10 μg/mL [1, 3]: 98.9%
- viability at 48 h, 100 μg/mL [1, 3]: 62.1%
- viability at 48 h, 400 μg/mL [1, 3]: 56.9%
- viability at 48 h, 0.2 μg/mL [1, 4]: 51.5%
- viability at 48 h, 2 μg/mL [1, 4]: 81.9%
- viability at 48 h, 10 μg/mL [1, 4]: 93.7%
- viability at 48 h, 100 μg/mL [1, 4]: 13.3%
- viability at 48 h, 400 μg/mL [1, 4]: 9.5%
- viability at 48 h, 0.2 μg/mL [1, 5]: 35.9%
- viability at 48 h, 2 μg/mL [1, 5]: 61.7%
- viability at 48 h, 10 μg/mL [1, 5]: 81.4%
- viability at 48 h, 100 μg/mL [1, 5]: 33%
- viability at 48 h, 400 μg/mL [1, 5]: 7.4%
- Virus Titer (SARS-CoV-2 virus; 1 μg/mL, 24-h): 38.64 viral protein fg/mL
- Virus Titer (SARS-CoV-2 virus; 1 μg/mL, 72-h): 37.69 viral protein fg/mL
- Virus Titer (SARS-CoV-2 virus; 15 μg/mL, 48-h): 37.86 viral protein fg/mL
- Drug concentration that produced an undetected virus copy number (SARS-CoV-2 virus; MoI 0.04, at 24, 48, and/or 72 hours' incubation): 37.5 µg/mL
- IC50 (SARS-CoV-2 virus; 24h, MoI 0.04): 9.5 µg/mL (≈ 28.3 µM)
- IC50 (SARS-CoV-2 virus; 48h, MoI 0.04): 4.7 µg/mL (≈ 14 µM)
- IC50 (SARS-CoV-2 virus; 72h, MoI 0.04): 1.4 µg/mL (≈ 4.17 µM)
- Results (virus detection) (SARS-CoV-2 virus; at the drug concentration of the same line of Table 4, MoI 0.04): 48, 72h virus undetected
- IL-10 (IL-10; 1 μg/mL, 24-h): 15.36 ± 0.75 pg/mL
- IL-10 (IL-10; 1 μg/mL, 48-h): 96.36 ± 0.71 pg/mL
- IL-10 (IL-10; 1 μg/mL, 72-h): 329.79 ± 0.08 pg/mL
- IL-10 (IL-10; 15 μg/mL, 24-h): 32.43 ± 1.19 pg/mL
- IL-10 (IL-10; 15 μg/mL, 72-h): 258.02 ± 9.73 pg/mL
- IL-10 (IL-10; 15 μg/mL, 48h): ↗↗ (15 μg/mL; 48h)
- IL-10 levels (in words) (IL-10; Table 5): increased
- IL-6 (IL-6; 1 μg/mL, 24-h): 15.91 ± 0.99 ng/L
- IL-6 (IL-6; 1 μg/mL, 48-h): 36.41 ± 2.01 ng/L
- IL-6 (IL-6; 1 μg/mL, 72-h): 47.64 ± 2.15 ng/L
- IL-6 (IL-6; 1 μg/mL, 24h): ↘↘ (1 μg/mL; 24h)
- IL-6 (IL-6; 15 μg/mL, 24-h): 15.91 ± 1.41 ng/L
- IL-6 (IL-6; 15 μg/mL, 48-h): 36.41 ± 0.89 ng/L
- IL-6 (IL-6; 15 μg/mL, 72-h): 39.80 ± 0.48 ng/L
- IL-6 (in words) (IL-6; Table 5): reduced
- TNF-α (TNF-α; 1 μg/mL, 24-h): 4.21 ± 0.31 pg/mL
- TNF-α (TNF-α; 1 μg/mL, 72-h): 548.17 ± 1.44 pg/mL
- TNF-α (TNF-α; 15 μg/mL, 72-h): 411.10 ± 0.18 pg/mL
- TNF-α (TNF-α; 24, 48, and 72 hours, cell without concentration): No effects
- TNF-α levels (in words) (TNF-α; Table 5): no effects
